Experimental data reported in patent publication US6521814B1, “Use of ligands for treatment of diseases responsive to retinoids” (Institut National de la Santa et de la Recherche Medicale, priority 1997, dated 2003).

Tests used:
RXRα−/− F9 cells [1] = assay: Apoptosis of F9 cells (Hoechst 33258 staining, FACS); format: cell-based, murine; conditions: 1 μM
RARα−/− F9 cells = assay: Morphological differentiation of F9 cell aggregates into visceral endoderm (VE)-like cells (morphology, RT-PCR of markers); format: cell-based, murine; conditions: 50 nM
Description: (§1) Similarly, after 10 d of treatment, >80% of the outer layer of RARα^−/− and RXRα^−/−/RARα^−/− cell aggregates differentiated into VE-like cells, which were indistinguishable from those of WT and RXRα^−/− cells (FIG. 23A, compare f with panels b and d; and Table 9). […] To exclude the possibility that this very poor differentiation of the RXRα^−/−/RARγ^−/− cells could be due to some clonal variation, rather than the presence of the RXRα-null mutation in the RARγ-null background, we expressed the RXRα cDNA in RXRα^−/−/RARγ^−/− cells.
(§2) F9 cells were cultured and induced to differentiate into primitive, parietal and visceral endoderm-like cells as previously described (Boylan, J., et al., Proc. Natl. Acad. Sci. USA 90:9601-9605 (1993); Clifford, J., et al., EMBO J. 15:4142-4155 (1996)).
(§3) RNA preparation, RT-PCR, and Southern blotting were performed as previously described (Bouillet, P., et al., Dev. Biol. 170:420-433 (1995); Roy, B., et al., Mol. Cell. Biol. 15:6481-6487 (1995)). The PCR primers and end-labeled oligonucleotide probes for collagen IVα1, laminin B1, α-fetoprotein (AFP), and 36B4, were described previously (Clifford, J., et al ., EMBO J. 15:4142-4155 (1996)). Transcript levels were quantified using a BAS 2000 bioimaging analyzer (Fuji Ltd., Tokyo, Japan), and were normalized to the corresponding 36B4 signals.

WT F9 cells = assay: as above; format: cell-based, murine; conditions: 50 nM, 10 d
Description: as §1, §2, §3

RXRα−/− F9 cells [2] = assay: as above; format: cell-based, murine; conditions: 50 nM, 10 d
Description: (§4) Transcript levels were quantified using a BAS 2000 bioimaging analyzer (Fuji Ltd., Tokyo, Japan), and were normalized to the corresponding 36B4 signals.

RXRα−/−/RARα−/− F9 cells = assay: as above; format: cell-based, murine; conditions: 50 nM
Description: as §4

RXRα−/−/RARγ−/− F9 cells = assay: as above; format: cell-based, murine
Description: as §4

RARγ−/− F9 cells = assay: as above; format: cell-based, murine
Procedure: as §2, §3

D2R promoter = D2R promoter CAT reporter assay in transfected COS-1 cells, reporter alone; format: cell-based, rat; conditions: C1 reporter-transfected COS-1 cells, no receptor vector; 10^−7 M
Description: Expression Vectors. The C1 reporter construct was obtained by subcloning the HindIII fragment spanning the 5 ′ promoter region of the D2R gene (positions −495 to +273), in the reporter plasmid pBLCAT3 (Luckow, B. & Schütz, G., Nucleic Acids Res. 15:5490 (1987)). The C2 reporter plasmid was constructed by subcloning the SmaI-XhoI fragment (positions −76 to +273) in the same position. The C3 and C4 reporters were generated by cloning a 29 bp synthetic oligonucleotide corresponding, respectively, to the natural rat D2R RARE sequence and the mutated one into pBLCAT2 (Luckow, B. & Schütz, G., Nucleic Acids Res. 15:5490 (1987)). The polylinker in pBLCAT2 is located upstream of the herpes simplex virus 1 (HSV1) thymidine kinase (TK) promoter, from position −105 to +51. To measure transfection efficiency the plasmid pCH110 carrying the β-galactosidase gene (Pharmacia) was used. Mouse […], as well as mouse RXRα, β and γ expression vectors were derived from the parental pSG5 vector (Green, S., et al., Nucleic Acids Res. 16:369 (1988)).
COS-1 cells were used for transient transfection assays. Cells were grown in Dulbecco's modified Eagle's medium supplemented with 5% fetal calf serum.
Several hours before transfection, the medium was replaced with fresh medium containing 5% charcoal-treated FCS. […]

For `CC1=C(/C=C/C(C)=C/C=C/C(C)=C/C(=O)O)C(C)(C)CCC1` [tRA, all-trans retinoic acid], the “proportion of apoptotic nuclei and subcellular fragments (Hoechst 33258)” value (RXRα−/− F9 cells [1]; 6 d) was “± (<1%)”, the “sub-2N size DNA-containing particles ('apoptotic bodies'), FACS” value (RXRα−/− F9 cells [1]; after 5 d) was “not detected” and the “proportion of outer layer of cells displaying VE morphology” value (RARα−/− F9 cells; 10 d) was “+++ (more than 80%)”. The “outer layer of cell aggregates differentiated into VE-like cells” value (RARα−/− F9 cells; after 10 d) was over 80%, the “induction of collagen type IVα1, laminin B1 and AFP mRNA” value (WT F9 cells; WT aggregates) was “similarly induced” and the “proportion of outer layer of cells displaying VE morphology” value (WT F9 cells; WT) was “+++ (more than 80%)”. For the same compound, the “proportion of outer layer of cells displaying VE morphology” value (RXRα−/− F9 cells [2]) was “+++ (more than 80%)”, the “induction of collagen type IVα1, laminin B1 and AFP mRNA” value (RXRα−/−/RARα−/− F9 cells; RXRα−/−/RARα−/− aggregates, 10 d) was “similarly induced” and the “proportion of outer layer of cells displaying VE morphology” value (RXRα−/−/RARα−/− F9 cells; RXRα−/−/RARα−/−, 10 d) was “+++ (more than 80%)”. The “outer layer of cell aggregates differentiated into VE-like cells” value (RXRα−/−/RARα−/− F9 cells; RXRα−/−/RARα−/−, after 10 d) was over 80%, the “induction of collagen IVα1, laminin B1 or AFP mRNA” value (RXRα−/−/RARγ−/− F9 cells; RXRα−/−/RARγ−/− aggregates, 50 nM, 10 d) was “no induction” and the “surface of the aggregates” value (RXRα−/−/RARγ−/− F9 cells; RXRα−/−/RARγ−/−, 50 nM, after 10 days) was “as smooth after 10 days of treatment as in untreated controls”. The “aggregates displaying only a spotty VE conversion” value (RXRα−/−/RARγ−/− F9 cells; RXRα−/−/RARγ−/−, after 12 or 18 d of treatment) was under 10%, the “induction of AFP mRNA” value (RARγ−/− F9 cells; RARγ−/− aggregates, 50 nM, 10 d) was “hardly detectable” and the “proportion of outer layer of cells displaying VE morphology” value (RARγ−/− F9 cells; RARγ−/−, 50 nM, 10 d) was “± (not more than 10%)”. For the same compound, the “outer layer of cells exhibiting VE conversion” value (RARγ−/− F9 cells; RARγ−/−, 50 nM, after 10 d) was under 10%, the “proportion of outer layer of cells displaying VE morphology” value (RARγ−/− F9 cells; RARγ−/−, 50 nM, after 14 d of treatment) was “+++ (more than 80%)” and the VE differentiation (RARγ−/− F9 cells; RARγ−/−, after 14 d of treatment) was “full VE differentiation was eventually achieved”. The “changes in CAT activity” value (D2R promoter) was “no significant changes”.
